The results in this text go back to PubChem BioAssay AID504626 (Southern Research Specialized Biocontainment Screening …, 2011).

The experiment deals with human PBMC, CCR5-tropic HIV-1 replication, RT activity. Kind of experiment: inhibitors of CCR5-tropic HIV-1 replication in PBMCs, dose response, cell-based, human PBMC, R5-tropic strain, set 3 (AID 504626).

Take `Cc1c2c(=O)n(-c3nc4ccccc4s3)nc-2cc(O)n1Cc1ccccc1`: the IC50 is 1570 nM.

As usually defined, the IC50 is the concentration that inhibits the measured activity by half.
